Reference: patent US10285986B2, “Compounds and anti-tumor NQO1 substrates” (The Board of Trustees of the University of Illinois, priority 2011, dated 2019)
Values after ≈ are worked out from the molar mass of the structure shown. Values joined by “and” are separate entries in the source; they are usually repeats but may differ in a detail not shown here. Equal values may be shown once. Read-outs that look alike come from different tables or passages of the source.

What was measured:
[1] = Solubility in organic solvents; assay type: physicochemical; conditions: for solubility: organic solvent or mixture, thermodynamic from solid
Description: The solubility of DNQ derivatives in organic solvents was determined by measuring the amount of a given solvent required to dissolve a known amount of compound. Solvent was added to the compound in 50 μL aliquots and the slurry was sonicated. […] Solubility was assessed in DMSO, dichloromethane, and 33% methanol in dichloromethane (FIGS. 9, 10, and 11, respectively).

[2] = target: NQO1 (Homo sapiens, UniProt P15559); test: NQO1 enzymatic measurements in vitro; assay type: biochemical; conditions: 1 μM substrate
NQO1, sequence (P15559 whole entry): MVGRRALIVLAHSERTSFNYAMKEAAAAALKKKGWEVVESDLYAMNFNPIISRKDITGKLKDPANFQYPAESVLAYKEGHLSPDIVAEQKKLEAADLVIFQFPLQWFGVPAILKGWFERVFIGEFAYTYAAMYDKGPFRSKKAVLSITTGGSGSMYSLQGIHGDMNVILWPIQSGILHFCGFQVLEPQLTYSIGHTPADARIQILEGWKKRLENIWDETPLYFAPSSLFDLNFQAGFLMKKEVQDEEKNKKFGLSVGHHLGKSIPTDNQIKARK
Description: As further evidence that the activity of these DNQ derivatives is dependent on their ability to be reduced by NQO1, full enzymatic measurements in vitro were performed. We found a strong correlation between catalytic efficiency of substrates in vitro and their cell culture toxicity. […] This provides strong evidence that the cytotoxicity of DNQ and its derivatives are dependent primarily upon the activity of NQO1 within the cell.

[3] = Solubility in 20% HPβCD solution (pH modulation protocol); assay type: physicochemical; conditions: 20% HPβCD in pH 7.4 PBS, pH 7.4, aqueous with cosolvent or surfactant or cyclodextrin, thermodynamic from solid; 20% HPβCD; Table 4.3
Description: The protocol for formulating DNQ compounds in HPβCD is as follows: the DNQ compound is slurried in a 20% solution of HPβCD in pH 7.4 PBS and the pH is then increased by the addition of 10 M NaOH to induce dissolution of the DNQ compound. The pH is returned to pH 7.5-8.0 by the careful addition of 1 M HCl. A 3.3 mM solution of the DNQ compound can be made by this method which is stable at least 24 hours. This represents a 30-fold increase in solubility of DNQ over PBS alone.
Although we were pleased to find active derivatives of DNQ that were up to 4-fold more soluble in water—sufficiently soluble for continuous IV infusion for human administration—this level of solubility was insufficient for animal studies by bolus injection. […] We used the same pH modulation protocol outlined for DNQ described in the specification above. The results are organized in Table 4.3 and FIG. 8. While all compounds were more soluble in HPβCD than in buffer alone, the fold increase in solubility varied widely.

[4] = Solubility in organic solvents; assay type: physicochemical; conditions: organic solvent or mixture, thermodynamic from solid; THF; Table 1
[5] = tested on: MCF-7 cells; test: Cytotoxicity to MCF-7 cells with or without 25 μM dicoumarol (sulforhodamine B assay); assay type: cell-based, human; conditions: for IC50: Homo sapiens; for Fold Protection of MCF7 cells w/ 25 μM dicoumarol: Table 1
Description: The NQO1-dependent cytotoxicity of the first set of derivatives was determined in MCF-7 cells which express high levels of NQO1. Cells were exposed to DNQ for 2 hours in the presence or absence of 25 μM DIC. The media was then removed and cells were washed once with media then fresh media was added and the cells were incubated for 72 hours. Cell death was assessed using the sulforhodamine B assay previously described. […] Substitution off the nitrogen appeared well tolerated (4-14 and 4-15).
The DNQ derivatives synthesized were assayed for their toxicity to MCF-7 cells with or without DIC. The data from these experiments is organized in Table 4.2. […] This tolerance of sterically-demanding substituents corresponds with a flexible and promiscuous NQO1 active site. The poor activity of hydroxyl derivative 4-41 may be a result of either poor binding with the largely hydrophobic NQO1 active site or with an excessively strong substrate-enzyme interaction because of hydrogen bonding.

[6] = Aqueous solubility in pH 7.4 PBS by LC-MS; assay type: physicochemical; conditions: phosphate buffered saline, pH 7.4, aqueous buffer, thermodynamic from solid, PBS pH 7.4; Table 4.3
Description: The aqueous solubility of DNQ at pH 7.4 in phosphate buffered saline (PBS) was measured by LC-MS. DNQ was sonicated for 30 minutes in PBS then undissolved solid was removed by filtration through a 0.45 μm syringe filter and the filtrate was analyzed by LC-MS (λ=275 nm, ESI-TOF in negative mode). The optimal sonication time was determined by sonicating DNQ for 1, 5, 10, and 30 minutes. While the concentration of DNQ in solution increased substantially between 1, 5, and 10 minutes, there was only a minor difference between 10 and 30 minutes. During the 30 minute sonication the water bath warmed to 45° C. (samples were cooled to room temperature before filtration). A calibration curve was generated from 1-100 μM by dissolving DNQ in methanol to a concentration of 500 μM and making dilutions of this stock in 80:20 water:methanol. The calibration curve (measure by UV absorbance) was linear over this range; 1 μM was approximately the limit of detection. […] The solution was very pale yellow.
The aqueous solubility of the compounds was determined by an LC-MS assay as described in the specification above. We applied the calibration curve generated for DNQ to the derivatives under the assumption that the UV profile of the derivatives of DNQ would be similar to that of DNQ.
After sonication and filtration most of the aqueous solutions were colorless. The solutions of DNQ, 4-31, and 4-37 were faintly yellow while 4-8, 4-14 and 4-41 were substantially more colored. The solution of 4-8, 4-14 and 4-41 were diluted 10-fold with PBS prior to LC-MS analysis to ensure that the concentrations fell within the range of the calibration curve.

[7] = Maximum tolerated dose in mice; conditions: mouse, in vivo, ip
Description: Because of the difficulty of repeated tail vein injections in mice, our group is using IP administration of compound.
All of these derivatives are currently being assessed for their maximum tolerated dose (MTD) in healthy mice. Compounds are formulated in HPβCD and delivered by IP injection to two mice once daily for five days.

[8] = 2:1 CH2Cl2:MeOH, Table 4.3, read-out: Solubility in 2:1 CH2Cl2:MeOH
[9] = CH2Cl2:MeOH 2:1, Table 1, read-out: CH2Cl2:MeOH 2:1 solubility
[10] = CH2Cl2, Table 1, read-out: CH2Cl2 solubility
[11] = DMSO, Table 1, read-out: DMSO solubility
[12] = MCF7, Table 1, read-out: MCF7 IC50
[13] = MCF7, Table 4.2, no DIC, ± s.e., read-out: IC50 vs. MCF-7 cells
[14] = MCF7, classification in figure legends of FIGS. 7-11, read-out: IC50 ("active" / generally "inactive" compounds)
[15] = MCF7, read-out: IC50 vs. MCF-7 cells +25 μM DIC, Table 4.2, +25 μM DIC, ± s.e.
[16] = CH2Cl2, Table 4.3, read-out: Solubility in CH2Cl2
[17] = DMSO, Table 4.3, read-out: Solubility in DMSO
[18] = MCF7, 2 h, Table 4.1, 2 h exposure, no DIC, ± s.e., read-out: IC50 vs. MCF-7 cells
[19] = MCF7, read-out: IC50 vs. MCF-7 cells +25 μM DIC, Table 4.1, +25 μM DIC, ± s.e.

Row | Compound | Solubility in CH2Cl2 ([1]; CH2Cl2, Table 4.3) [mM] | Solubility in DMSO ([1]; DMSO, Table 4.3) [mM] | solubility [1, 8] [mM] | solubility [1, 9] [mM] | solubility [1, 10] [mM] | solubility [1, 11] [mM] | NQO1 Initial Velocity @ 1 μM [2] | solubility [3] [mM] | solubility [4] [mM] | IC50 [5, 12] [nM] | IC50 [5, 13] [nM] | IC50 [5, 14] [nM] | IC50 [5, 15] [nM] | Fold Protection of MCF7 cells w/ 25 μM dicoumarol [5] | Fold protection by DIC ([5]; Table 4.2) | solubility at 30 min [6] [mM] | MTD at 5 days [7] | also measured
1 | CCCCn1c2c(c(C)cc1=O)C(=O)c1c(C)cc(=O)[nH]c1C2=O [Compound 4-22] | 7.6 (≈ 2480 µg/mL) | 10 (≈ 3260 µg/mL) | 30 (≈ 9790 µg/mL) | 30 (≈ 9790 µg/mL) | 7.6 (≈ 2480 µg/mL) | 10 (≈ 3260 µg/mL) | 2100 ± 300 | 4 (≈ 1310 µg/mL) | 6.1 (≈ 1990 µg/mL) | 270 | 270 ± 40 | < 500 | 1500 ± 400 | 5.5 | 5.5 | 0.017 (≈ 5.55 µg/mL) | – | –
2 | Cc1cc(=O)[nH]c2c1C(=O)c1c(C)cc(=O)n(C(C)C)c1C2=O [Compound 4-30] | – | – | 79 (≈ 24700 µg/mL) | – | – | – | – | 3.7 (≈ 1160 µg/mL) | – | – | 240 ± 20 | < 500 | 2100 ± 800 | – | 8.6 | 0.041 (≈ 12.8 µg/mL) | – | solubility [1, 16]: 5.6 mM (≈ 1750 µg/mL); solubility [1, 17]: 21 mM (≈ 6560 µg/mL)
3 | Cc1cc(=O)[nH]c2c1C(=O)c1c(C)cc(=O)n(CC3CC3)c1C2=O [Compound 4-37] | – | – | 51 (≈ 16500 µg/mL) | – | – | – | – | 4.3 (≈ 1390 µg/mL) | – | – | 220 ± 10 | < 500 | 1400 ± 200 | – | 6.1 | 0.114 (≈ 37 µg/mL) | – | solubility [1, 16]: 13 mM (≈ 4220 µg/mL); solubility [1, 17]: 25 mM (≈ 8110 µg/mL)
4 | Cc1cc(=O)[nH]c2c1C(=O)c1c(C)cc(=O)n(CCC(C)C)c1C2=O [Compound 9-249] | 9.7 (≈ 3300 µg/mL) | 8.6 (≈ 2930 µg/mL) | 58 (≈ 19700 µg/mL) | 58 (≈ 19700 µg/mL) | 9.7 (≈ 3300 µg/mL) | 8.6 (≈ 2930 µg/mL) | 2100 ± 90 | 4.7 (≈ 1600 µg/mL) | 8.8 (≈ 3000 µg/mL) | 150 ± 30 | 180 ± 30 | < 500 | 1800 ± 500 | 12 | 10 | 0.006 (≈ 2.04 µg/mL) | 15 mg/kg and 44 µmol/kg | –
5 | Cc1cc(=O)[nH]c2c1C(=O)c1c(C)cc(=O)n(CC(C)(C)C)c1C2=O [Compound 9-253] | 23 (≈ 7830 µg/mL) | 16 (≈ 5450 µg/mL) | 100 (≈ 34000 µg/mL) | 100 (≈ 34000 µg/mL) | 23 (≈ 7830 µg/mL) | 16 (≈ 5450 µg/mL) | 1700 ± 100 | 9.4 (≈ 3200 µg/mL) | 20 (≈ 6810 µg/mL) | 110 ± 40 | 230 ± 10 | < 500 | 2100 ± 700 | 9 | 8.9 | 0.024 (≈ 8.17 µg/mL) | ≥ 15 mg/kg and ≥ 44 µmol/kg | –
6 | CCCCCn1c2c(c(C)cc1=O)C(=O)c1c(C)cc(=O)[nH]c1C2=O [Compound 9-255] | 22 (≈ 7490 µg/mL) | 17 (≈ 5790 µg/mL) | 95 (≈ 32300 µg/mL) | 95 (≈ 32300 µg/mL) | 22 (≈ 7490 µg/mL) | 17 (≈ 5790 µg/mL) | 1700 ± 40 | 5 (≈ 1700 µg/mL) | 16 (≈ 5450 µg/mL) | 190 ± 10 | 200 ± 10 | < 500 | 2000 ± 900 | 11 | 10 | < 0.005 | ≥ 15 mg/kg and ≥ 44 µmol/kg | –
7 | CCCCCCn1c2c(c(C)cc1=O)C(=O)c1c(C)cc(=O)[nH]c1C2=O [Compound 9-257] | 32 (≈ 11300 µg/mL) | 18 (≈ 6380 µg/mL) | 140 (≈ 49600 µg/mL) | 140 (≈ 49600 µg/mL) | 32 (≈ 11300 µg/mL) | 18 (≈ 6380 µg/mL) | 1850 ± 60 | 6 (≈ 2130 µg/mL) | 27 (≈ 9570 µg/mL) | 260 ± 40 | 290 ± 40 | < 500 | 3000 ± 600 | 11 | 10 | < 0.005 | ≥ 16 mg/kg and ≥ 44 µmol/kg | –
8 | CCCn1c2c(c(C)cc1=O)C(=O)c1c(C)cc(=O)[nH]c1C2=O [Compound 10-41] | 3.9 (≈ 1220 µg/mL) | 8.9 (≈ 2780 µg/mL) | 32 (≈ 9990 µg/mL) | 32 (≈ 9990 µg/mL) | 3.9 (≈ 1220 µg/mL) | 8.9 (≈ 2780 µg/mL) | 1590 ± 70 | 6.3 (≈ 1970 µg/mL) | 3.4 (≈ 1060 µg/mL) | 120 ± 10 | – | < 500 | – | 10 | – | 0.039 (≈ 12.2 µg/mL) | ≥ 14 mg/kg and ≥ 44 µmol/kg | IC50 [5, 18]: 130 ± 10 nM; IC50 [5, 19]: 1300 ± 400 nM; Fold protection by DIC ([5]; Table 4.1): 10
9 | CCn1c2c(c(C)cc1=O)C(=O)c1c(C)cc(=O)[nH]c1C2=O [Compound 109] | 9.5 (≈ 2830 µg/mL) | 24 (≈ 7160 µg/mL) | 19 (≈ 5670 µg/mL) | 19 (≈ 5670 µg/mL) | 9.5 (≈ 2830 µg/mL) | 24 (≈ 7160 µg/mL) | 1500 ± 100 | 5.7 (≈ 1700 µg/mL) | 18 (≈ 5370 µg/mL) | 530 | – | < 500 | – | 4.5 | – | 0.319 (≈ 95.2 µg/mL) | 10 mg/kg and 35 µmol/kg | IC50 [5, 18]: 200 ± 10 nM; IC50 [5, 19]: 3400 ± 200 nM; Fold protection by DIC ([5]; Table 4.1): 17
